Measurements: patent US11931423B2, “Glucose oxidase-nanoparticle bioconjugates for cancer treatment” (UNIVERSITY OF PITTSBURGH—OF THE COMMONWEALTH SYSTEM OF …, priority 2017, dated 2024)

Tested on: A431 cells with high EGFR expression
Test: A431 cell viability (CellTiter-Glo viability assay)
Format: cell-based
Conditions: Homo sapiens, A-431, 50 μM (30 μg/mL), after 24 h, PBS = 100% viability
Procedure: As a comparison, the A431 cells were also treated with SPION alone, a mixture of unconjugated SPION and GOx, and doxorubicin (a chemotherapy drug).
A431 cancer cells were purchased from ATCC. They were cultured in Dulbecco's Modified Eagle Medium (DMEM) containing 10% FBS, penicillin (100 U/mL), and streptomycin (100 μg/mL) at 37° C. in a humidified atmosphere containing 5% CO2 and 95% air.
50 μL SPION, the mixture of GOx and SPION without conjugation, mAb-GOx-SPION, doxorubicin, or PBS (as a control) were each added to a 96-well plate seeded with A431 cancer cells, followed by addition of 100 μL of DMEM containing 4 g/L glucose. After being incubated for various amounts of time, the cells were washed with PBS 3 times. 100 μL DMEM was added before cell viability was measured by using a CellTiter-Glo viability assay kit.
The cytotoxic effects of the system as functions of the concentrations of both cetuximab-GOx-SPION and glucose were investigated. 50 μL cetuximab-GOx-SPION (1.0 μg/mL) was added to 96-well plates seeded with A431 and HeLa cancer cells, followed by addition of 100 μL of DMEM that contains glucose at 20 g/L. After 1.5 h incubation, the cells were washed with PBS 3 times and then cultured in 200 μL of DMEM. After being incubated for another 12 h, cell viability was measured by using CellTiter-Glo viability assay kit. […]

COc1cccc2c1C(=O)c1c(O)c3c(c(O)c1C2=O)C[C@@](O)(C(=O)CO)C[C@@H]3O[C@H]1C[C@H](N)[C@H](O)[C@H](C)O1 [doxorubicin]
viability at 50 µM: ~3%
